From US20070123546A1, “2-amino-7,8-dihydro-6H-pyrido[4,3-d]pyrimidin-5-ones” (Chiron Corporation, priority 2005, published 2007)

biological target: His-tagged N-terminal ATP binding domain (amino acid residues 9-236) of HSP90α (Homo sapiens, UniProt P07900); assay: HSP90 inhibitor binding potency: TRF competition binding assay; conditions: Table 1; competition with biotinylated radicicol
Summary of the method: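 His-tagged HSP90α N-domain (residues 9-236) incubated 2 h at room temperature with biotinylated radicicol and increasing compound in 50 mM HEPES, 6 mM MgCl2, 20 mM KCl, 0.1% BSA. Bound tracer captured on streptavidin plates, detected with europium anti-His antibody by time-resolved fluorescence; IC50 derived.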

Row | SMILES | IC50 [µM]
1 | Cc1nc(N)nc2c1C(=O)N(CC(C)(C)N1CCOCC1)C(c1ccc(F)cc1-c1cncnc1)C2 (stereo not drawn) [Compound 37, 2-Amino-7-(4-fluoro-2-pyrimidin-5-yl-phenyl)-4-methyl-6-(2-methyl-2-morpholin-4-yl-propyl)-7,8-dihydro-6H-pyrido[4,3-d]pyrimidin-5-one] | > 10
2 | COc1cccc(-c2cc(F)ccc2[C@H]2Cc3nc(N)nc(C)c3C(=O)N2CCCN)n1 [Compound 27, (R)-2-Amino-6-(3-amino-propyl)-7-[4-fluoro-2-(6-methoxy-pyridin-2-yl)-phenyl]-4-methyl-7,8-dihydro-6H-pyrido[4,3-d]pyrimidin-5-one] | < 10

Continued, values first:

Row | IC50 [µM] | SMILES
3 | < 10 | Cc1nc(N)nc2c1C(=O)NC(c1ccc(F)cc1-c1cccnc1Cl)C2 (stereo not drawn) [Compound 16, 2-Amino-7-[2-(2-chloro-pyridin-3-yl)-4-fluoro-phenyl]-4-methyl-7,8-dihydro-6H-pyrido[4,3-d]pyrimidin-5-one]
4 | < 10 | COc1ncccc1-c1ccccc1C1Cc2nc(N)nc(C)c2C(=O)N1 (stereo not drawn) [Compound 13, 2-Amino-7-[2-(2-methoxy-pyridin-3-yl)-phenyl]-4-methyl-7,8-dihydro-6H-pyrido[4,3-d]pyrimidin-5-one]
5 | < 10 | COc1cncc(-c2cc(F)ccc2C2Cc3nc(N)nc(C)c3C(=O)N2)c1 (stereo not drawn) [Compound 36, 2-Amino-7-[4-fluoro-2-(5-methoxy-pyridin-3-yl)-phenyl]-4-methyl-7,8-dihydro-6H-pyrido[4,3-d]pyrimidin-5-one]
6 | < 10 | COc1cccc(-c2cc(F)ccc2C2Cc3nc(N)nc(C)c3C(=O)N2)c1 (stereo not drawn) [Compound 26, 2-Amino-7-(5-fluoro-3′-methoxy-biphenyl-2-yl)-4-methyl-7,8-dihydro-6H-pyrido[4,3-d]pyrimidin-5-one]

same assay, conditions: Table 2; competition with biotinylated radicicol

Row | SMILES | IC50 [µM]
7 | Cc1ccc(-c2cc(F)ccc2[C@H]2Cc3nc(N)ncc3C(=O)N2)cc1 [Compound 60, (R)-2-Amino-7-(5-fluoro-4′-methyl-biphenyl-2-yl)-7,8-dihydro-6H-pyrido[4,3-d]pyrimidin-5-one] | < 10
8 | COc1ncc(-c2cc(F)ccc2[C@H]2Cc3nc(N)ncc3C(=O)N2)c(OC)n1 [Compound 63, (R)-2-Amino-7-[2-(2,4-dimethoxy-pyrimidin-5-yl)-4-fluoro-phenyl]-7,8-dihydro-6H-pyrido[4,3-d]pyrimidin-5-one] | > 10
9 | COc1ccc(F)cc1-c1cc(F)ccc1[C@H]1Cc2nc(N)ncc2C(=O)N1 [Compound 55, (R)-2-Ammo-7-(5,5′-difluoro-2′-methoxy-biphenyl-2-yl)-7,8-dihydro-6H-pyrido[4,3-d]pyrimidin-5-one] | < 10

Further lines, results first:

Row | IC50 [µM] | SMILES
10 | < 10 | CCOc1cncc(-c2ccccc2[C@H]2Cc3nc(N)nc(C)c3C(=O)N2)n1 [Compound 71, (R)-2-Amino-7-[2-(6-ethoxy-pyrazin-2-yl)-phenyl]-4-methyl-7,8-dihydro-6H-pyrido[4,3-d]pyrimidin-5-one]
11 | < 10 | COc1ccc(-c2cc(F)ccc2[C@H]2Cc3nc(N)nc(C)c3C(=O)N2)s1 [Compound 65, (R)-2-Amino-7-[4-fluoro-2-(5-methoxy-thiophen-2-yl)-phenyl]-4-methyl-7,8-dihydro-6H-pyrido[4,3-d]pyrimidin-5-one]

same assay, conditions: Table 3; competition with biotinylated radicicol

Row | IC50 [µM] | SMILES
12 | > 10 | Cc1nc(N)nc2c1C(=O)N(CC(C)C)[C@@H](c1ccc(F)cc1Br)C2 [Compound 149, (R)-2-Amino-7-(2-bromo-4-fluoro-phenyl)-6-isobutyl-4-methyl-7,8-dihydro-6H-pyrido[4,3-d]pyrimidin-5-one]
13 | < 10 | COc1nc(-c2cc(F)ccc2[C@H]2Cc3nc(N)nc(C)c3C(=O)N2)cs1 [Compound 95, (R)-2-Amino-7-[4-fluoro-2-(2-methoxy-thiazol-4-yl)-phenyl]-4-methyl-7,8-dihydro-6H-pyrido[4,3-d]pyrimidin-5-one]
14 | < 10 | COc1cncc(-c2cc(F)ccc2[C@H]2Cc3nc(N)nc(C)c3C(=O)N2CCCN)n1 [Compound 171, (R)-2-Amino-6-(3-amino-propyl)-7-[4-fluoro-2-(6-methoxy-pyrazin-2-yl)-phenyl]-4-methyl-7,8-dihydro-6H-pyrido[4,3-d]pyrimidin-5-one]
15 | < 10 | COc1cccc(-c2scnc2[C@H]2Cc3nc(N)nc(C)c3C(=O)N2)n1 [Compound 172, (R)-2-Amino-7-[5-(6-methoxy-pyridin-2-yl)-thiazol-4-yl]-4-methyl-7,8-dihydro-6H-pyrido[4,3-d]pyrimidin-5-one]
16 | < 10 | COc1nc(-c2cc(F)ccc2[C@H]2Cc3nc(N)nc(C)c3C(=O)N2Cc2ccccc2Cl)cnc1N [Compound 126, (R)-2-Amino-7-[2-(5-amino-6-methoxy-pyrazin-2-yl)-4-fluoro-phenyl]-6-(2-chloro-benzyl)-4-methyl-7,8-dihydro-6H-pyrido[4,3-d]pyrimidin-5-one]
17 | < 10 | COc1cccc(-c2cc(F)ccc2[C@H]2Cc3nc(N)nc(C)c3C(=O)N2Cc2cccc(C(F)(F)F)c2)n1 [Compound 128, (R)-2-Amino-7-[4-fluoro-2-(6-methoxy-pyridin-2-yl)-pheny 1]-4-methyl-6-(3-trifluoromethyl-benzyl)-7,8-dihydro-6H-pyrido[4,3-d]pyrimidin-5-one]
18 | < 10 | COc1cccc(-c2cc(F)ccc2[C@H]2Cc3nc(N)nc(C)c3C(=O)N2Cc2ccccc2Cl)n1 [Compound 125, (R)-2-Amino-6-(2-chloro-benzyl)-7-[4-fluoro-2-(6-methoxy-pyridin-2-yl)-phenyl]-4-methyl-7,8-dihydro-6H-pyrido[4,3-d]pyrimidin-5-one]

same assay, conditions: Table 4; competition with biotinylated radicicol

Row | SMILES | IC50 [µM]
19 | CCOc1nc(-c2cc(F)ccc2[C@H]2Cc3nc(N)nc(C)c3C(=O)N2)ncc1F [Compound 174, (R)-2-Amino-7-[2-(4-ethoxy-5-fluoro-pyrunidin-2-yl)-4-fluoro-phenyl]-4-methyl-7,8-dihydro-6H-pyrido[4,3-d]pyrimidin-5-one] | < 10
20 | Cc1nc(N)nc2c1C(=O)N[C@@H](c1ccc(F)cc1-c1n[nH]c(=O)o1)C2 [Compound 222, (R)-2-Amino-7-[4-fluoro-2-(5-oxo-4,5-dihydro-[1,3,4]oxadiazol-2-yl)-phenyl]-4-methyl-7,8-dihydro-6H-pyrido[4,3-d]pyrimi[…]din-5-one] | ≥ 10
21 | CCOc1nc(-c2cc(F)ccc2[C@H]2Cc3nc(N)nc(CC)c3C(=O)N2)cnc1N [Compound 226, (R)-2-Amino-7-[2-(5-amino-6-ethoxy-pyrazin-2-yl)-4-fluoro-phenyl]-4-ethyl-7,8-dihydro-6H-pyrido[4,3-d]pyrimidin-5-one] | < 10

Other lines, results leading:

Row | IC50 [µM] | SMILES
22 | < 10 | COc1ncc(-c2cc(F)ccc2[C@H]2Cc3nc(N)nc(C)c3C(=O)N2)s1 [Compound 225, (R)-2-Amino-7-[4-fluoro-2-(2-methoxy-thiazol-5-yl)-phenyl]-4-methyl-7,8-dihydro-6H-pyrido[4,3-d]pyrimidin-5-one]
23 | < 10 | CCc1nc(N)nc2c1C(=O)N[C@@H](c1ccccc1-c1cccc(OC)n1)C2 [Compound 198, (R)-2-Amino-4-ethyl-7-[2-(6-methoxy-pyridin-2-yl)-phenyl]-7,8-dihydro-6H-pyrido[4,3-d]pyrimidin-5-one]
24 | < 10 | COc1nc(-c2cc(F)ccc2[C@H]2Cc3nc(N)nc(C)c3C(=O)N2)ccc1N [Compound 190, (R)-2-Amino-7-[2-(5-amino-6-methoxy-pyridin-2-yl)-4-fluoro-phenyl]-4-methyl-7,8-dihydro-6H-pyrido[4,3-d]pyrimidin-5-o[…]ne]
